This note sets out measurements from the NIST ThermoML archive (doi:10.1021/je200352g).

Structures are written as SMILES. ± gives the expanded uncertainty stated by the source.

For the series the following is noted: 298 K; 101.33 kPa; Crystal; X-ray diffraction.

Turning to `CCCCCCCCC[NH3+].O=P([O-])(O)O` [1-nonylammonium dihydrogen phosphate], the mass density is listed as 1268 ± 2 kg/m3.
Next, `CCCCCCCC[NH3+].O=P([O-])(O)O` [1-octanaminium dihydrogen phosphate]: 1282 ± 2 kg/m3.

By mass density is commonly meant mass per unit of volume.
